Where no end group is shown, it is not given here. The star is where a group is joined. FITC = O=C1OC2(c3ccc(O)cc3Oc3cc(O)ccc32)c2ccc(NC(=S)*)cc21
Columns and labels:
[1] = test system: Ishikawa cells; experiment: Fluorescence microscopy of overlay on Ishikawa cells; type: cell-based, human
Experimental: Twenty μl of C16-z13 peptide (10 mM in chloroform:methanol 2:1) was mixed with 20 μl phosphatidylcholine (100 mM in chloroform) and 10 μl cholesterol (100 mM in chloroform) in a round bottom flask and evaporated in a rotary evaporator. The sample was dried in a vacuum, dissolved in 500 μl 0.3M citric acid, and frozen and thawed three times, followed by sonication for 10 min. Five hundred μl of 0.2M Na2CO3 and 20 μl of 1 μM Qdot605 streptavidin was added and heated at 60° C. for 1 hour. After adding 1 ml of 20 mM Hepes buffer, pH7.2, the liposome solution was centrifuged at 90,000 rpm for 30 min at 4° C. and the pellet dissolved in PBS.
(§1) Ishikawa cells and A431 cells were grown on glass coverslips in 3.5 cm tissue culture plates. Each phage clone including z13 was added to these cells, incubated at 4° C. for 15 min, washed with cold PBS, and fixed with 1% paraformaldehyde (PFA) in PBS. Phage was detected using rabbit anti-T7 antibody and FITC-conjugated goat anti-rabbit IgG antibody. After washing three times with PBS, cells were fixed with 1% paraformaldehyde in PBS and inspected under a Zeiss Axioplan fluorescence microscope. Ishikawa cells grown on glass coverslips were incubated in medium containing FITC-z13 peptide (1 μg/ml) at 37° C. for 15 min. After washing with PBS, cells were fixed with 1% PFA in PBS, and inspected under the fluorescence microscope. Qdot-encapsulated and C16-z13 peptide coated liposomes were prepared as described above. Ishikawa cells were incubated with these liposomes at 37° C. for 15 min, washed with PBS, fixed with 1% PFA, and inspected under the fluorescence microscope. Qdot605-conjugated peptide, Qdot-cys-z13, or control peptide, Qdot-cys-m2, was added to the culture at 100 nM and left at 37° C. for 15 min.

[2] = test system: A431 cells; experiment: Fluorescence microscopy of overlay on A431 cells; type: cell-based, human
Experimental: as §1

[3] = test system: human endometrial tissues grafted onto the peritoneal wall; experiment: In vivo targeting in SCID mouse peritoneal endometriosis model; conditions: intraperitoneal injection, 30 min
Experimental: For in vivo targeting, Qdot-cys-z13 or Qdot-cys-m2 (200 nmoles in 200 μl PBS/mouse) was injected into the peritoneum of a SCID mouse that had received intraperitoneal grafts of human endometrial tissues. The abdomen of the mouse was massaged gently to distribute injected material to the entire peritoneal cavity. After 30 min, mice were sacrificed, and the endometrial graft and organs facing the peritoneum were isolated. Tissues were washed in PBS, embedded in O. C. T. compound (Sakura Finetechnical, Tokyo, Japan) and cryosections were made. Sections were fixed with cold methanol, covered with Vecta-shield with DAPI (Vector), and inspected with a fluorescence microscope.
Immunohistochemistry for the progesterone receptor (PR) was performed as follows: Frozen mouse tissue sections prepared from Qdot-cys-z13 injected mice, Qdot-cys-m2 injected mice, and control mice without Qdot injection were fixed in cold methanol for 15 min. Tissue sections were blocked with avidin (5 ng/ml) in PBS at room temperature for 15 min, followed by incubation with 10% goat serum containing biotin (5 μg/ml) for 1 hour. The tissue sections were then applied to immunohistochemistry with a diluted (1:100) anti-PR antibody (DAKO, Carpinteria, Calif.) at 4° C. for 20 hours. After washing with PBS, sections were incubated with biotinylated anti-rabbit IgG antibody (Zymed) and by streptavidin conjugated Qdot565. […]

## FITC-z13: synthetic fluorescence-tagged z13 peptide whose amino-terminus was conjugated ({FITC}-VRRADNRPG)
[1]; 1 μg/ml, 37° C. 15 min
  binding of fluorescent peptide to Ishikawa cells: bound
[2]
  fluorescence of fluorescent peptide on A431 cells: did not show fluorescence

## Qdot-cys-m2: Qdot605 conjugate of the control peptide cys-m2 CRGMSDTTAL (also: Qdot605 conjugate)
[1]; 100 nM, 37° C. 15 min
  fluorescence of Qdot-conjugated peptide on Ishikawa cells: did not show fluorescence signals
[3]
  fluorescence at the surface epithelia of endometriosis lesions: did not show fluorescence
  fluorescence in other mouse tissues facing the peritoneum: did not show fluorescence

## VRRADNRPG [z13 peptide]
[1]; conclusion from FITC, C16 liposome and Qdot conjugates
  binding to Ishikawa cells regardless of modification at the amino terminus: efficiently binds

— patent publication US10259844B2, “Endometriosis cell targeting peptide and uses thereof” (Sanford-Burnham Medical Research Institute, priority 2005, dated 2019)
